Measured values published in patent US7582651B2, “Pyrrolopyridine derivative and use thereof” (Takeda Pharmaceutical Company Limited, priority 2002, dated 2009).

Tests used:
SD male rats = experiment: Measurement of bladder volume (saline infusion under urethane anesthesia); type: in vivo, rat; details: sc, 12 hours after administration
Experimental: Measurement of Mouse Bladder Volume
Six or seven of 7 weeks old SD male rats were used in a group in this test. At 12 hours after the subcutaneous administration of the drug, the abdomen of rat was cut open under urethane anesthesia (1.2 g/kg, ip) to expose the bladder. Physiological saline solution was infused into the bladder at the rate of 0.1 ml/minutes to check excretion reflection. All of the urine was drained off, and the physiological saline solution was infused again, and then, the bladder volume of mouse was calculated by measuring the time to urination.

ICR male mice [1] = experiment: Tail-flick test (55° C. water bath); type: in vivo, mouse; details: po
Experimental: Eight of 5 weeks old ICR male mice were used in a group in this test. The tail of the mouse was dipped by about 2 cm from the end into water in a water bath warmed to 55° C., and the latency to lift the tail up was measured. The latency was previously measured before the administration of the drug, and the mouse having the latency of 2 seconds or less was selected and used in the test. The drug was administered orally, and the latency was measured after 3, 6 and 24 hours. Cut-off time was set to 5 seconds. The drug was suspended in 0.5% methylcellulose, and the dose was 20 ml/kg BW.

ICR male mice [2] = experiment: Mouse eye dropping test (stimulating and desensitizing activity, capsaicin challenge); type: in vivo; details: 0.01 ml dropped to the eye; capsaicin (0.3 μg) 1 hour after initial treatment; desensitizing activity
Experimental: Eight of 4 to 5 weeks old ICR male mice (Japan SLC Inc.) were used in a group in this test. 0.01 ml of the drug was added dropwise to the eye, and the time when the mouse continued to close the eye was measured. The stimulation of the drug was evaluated as positive when the time is more than 10 seconds, and as negative when the time is 10 seconds or less. At 1 hour after the initial treatment, a solution of capsaicin (0.3 μg) was added dropwise to the eye to evaluate whether the stimulation is or not, and examined the desensitizing activity of the compound. The stimulating and desensitizing activity of the drug were calculated as a value of ED50. The drug was dissolved in a mixture of 10% ethanol, 20% Tween 80 and 70% physiological saline solution.

[3] = test system: vanilloid receptor-1 (VR1) expressed in CHO-K1 cells (RVR1/CHO and HVR1/CHO strains); experiment: Evaluation of compounds based on cell death (survival rate of VR1-expressing CHO strains); design: species or system rat, human; details: 1 μM test compound, 3 hours reaction, Alama Blue, cultured 20 hours; strain (RVR1/CHO or HVR1/CHO) not stated
Experimental: CHO-K1 cells (ATCC No.: CCL-61) were grown in a 150 cm^2 of a cell culture flask (Corning Coaster) using a Ham's F12 medium (GIBCO BRL) containing 10% fetal bovine serum (GIBCO BRL) and were collected from the flask by using 0.5 g/L trypsin-0.2 g/L EDTA (GIBCO BRL). The cells were washed with PBS (GIBCO BRL), centrifuged (1000 rpm, 5 minutes) and suspended in PBS. Then, the DNA was introduced into the cells using Gene Pulser (Bio-Rad Laboratories Inc.) under the following conditions. Namely, 1×10^7 cells and 15 μg of plasmid pRVR1 for expression of rat VR1 were added into a cuvette having a 0.4 cm of gap, and electroporation was carried out at an electric voltage of 0.25 kV and a capacitance of 960 μF. Subsequently, the cells were transferred into the Ham's F12 medium containing 10% fetal bovine serum, and incubated for 24 hours. The cells were then collected, centrifuged and suspended in Ham's F12 medium containing 10% fetal bovine serum and Geneticin (GIBCO BRL) at a concentration of 500 μg/ml. […]
Subsequently, the resulting Geneticin-resistant strains were cultured in the 96-well plates (Corning Coaster). […] Subsequently, the radioactivity was measured with TopCount (Packard Industry Company, Inc.) to select RVR1/CHO strains of which calcium concentration in the cells is increased when capsaicin is added thereto. […]

| Structure (SMILES) | Bladder capacity (SD male rats; 3 mg/kg) [mL] | Bladder capacity (SD male rats; 10 mg/kg) [mL] | Latency (ICR male mice [1]; 10 mg/kg, 3 h after administration) [s] | Latency (ICR male mice [1]; 10 mg/kg, 6 h after administration) [s] | Latency (ICR male mice [1]; 10 mg/kg, 24 h after administration) [s] | Latency (ICR male mice [1]; 10 mg/kg, Pre (before administration)) [s] | Latency (ICR male mice [1]; 30 mg/kg, 3 h after administration) [s] | Latency (ICR male mice [1]; 30 mg/kg, 6 h after administration) [s] | Latency (ICR male mice [1]; 30 mg/kg, 24 h after administration) [s] | Latency (ICR male mice [1]; 30 mg/kg, Pre (before administration)) [s] | ED50 (ICR male mice [2]) [µg] | survival rate of the cells [3] [%] |
| --- | --- | --- | --- | --- | --- | --- | --- | --- | --- | --- | --- | --- |
| Cc1cc(C)c2c(C#N)c(/C=C/C(=O)NC3CCOC(C)(C)C3)n(C3CCc4ccccc43)c2n1 (stereo not drawn) [Example 51, (2E)-3-[3-cyano-1-(indan-1-yl)-4,6-dimethyl-1H-pyrrolo[2,3-b]pyridin-2-yl]-N-(2,2-dimethyltetrahydro-2H-pyran-4-yl)acrylamide] | 1.76 ± 0.37 | 1.57 ± 0.23 | 0.85 ± 0.10 | 0.64 ± 0.04 | 0.78 ± 0.04 | 0.55 ± 0.02 | 2.31 ± 1.13 | 2.04 ± 1.15 | 3.36 ± 1.02 | 0.70 ± 0.07 |  |  |
| Cc1cc(C)c2c(C#N)c(/C=C/C(=O)N[C@@H]3CCOC(C)(C)C3)n([C@H]3CCCc4ccccc43)c2n1 [Example 74, (2E)-3-{3-cyano-4,6-dimethyl-1-[(1S)-1,2,3,4-tetrahydronaphthalen-1-yl]-1H-pyrrolo[2,3-b]pyridin-2-yl}-N-[(4R)-2,2-dimethyltetrahydro-2H-pyran-4-yl]prop-2-enamide] |  |  |  |  |  |  |  |  |  |  | 0.55 | 2 |
